Test results as given in ChEMBL document CHEMBL5316299, “Discovery of Novel Drug-like PHGDH Inhibitors to Disrupt Serine Biosynthesis for Cancer Therapy” (J Med Chem, 2023).

What was measured:
[1] = Microsomal stability in human liver microsomes assessed as half life measured upto 60 mins by HPLC-MS/MS analysis; type: ADME, Microsome
[2] = target: T1, D-3-phosphoglycerate dehydrogenase (Homo sapiens, UniProt O43175); experiment: Competitive inhibition of PHGDH (unknown origin) assessed as inhibition constant using 3-PG as substrate preincubated for 30 mins followed by substrate addition and measured after 5 mins by Lineweaver-Burk plot analysis
T1 sequence (O43175 whole entry): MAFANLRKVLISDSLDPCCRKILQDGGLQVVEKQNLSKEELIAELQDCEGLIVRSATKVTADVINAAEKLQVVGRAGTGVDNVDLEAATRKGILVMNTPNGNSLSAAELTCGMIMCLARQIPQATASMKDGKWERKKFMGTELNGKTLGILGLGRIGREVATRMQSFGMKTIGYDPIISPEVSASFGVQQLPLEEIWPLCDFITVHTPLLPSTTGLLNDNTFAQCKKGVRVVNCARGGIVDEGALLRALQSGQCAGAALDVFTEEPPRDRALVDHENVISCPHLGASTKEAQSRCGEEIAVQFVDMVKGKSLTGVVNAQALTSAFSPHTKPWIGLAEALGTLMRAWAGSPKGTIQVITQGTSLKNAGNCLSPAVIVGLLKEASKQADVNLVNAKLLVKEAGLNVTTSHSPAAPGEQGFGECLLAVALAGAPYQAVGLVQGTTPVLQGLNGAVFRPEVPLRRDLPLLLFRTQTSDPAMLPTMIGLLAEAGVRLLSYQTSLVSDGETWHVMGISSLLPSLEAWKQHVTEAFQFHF

MDA-MB-468 = experiment: Antiproliferative activity against human MDA-MB-468 cells expressing PHGDH assessed as reduction in cell viability measured for 72 hrs by CCK-8 assay; type: functional, cell-based; conditions: MDA-MB-468, 72 h
[3] = target: D-3-phosphoglycerate dehydrogenase (Homo sapiens, UniProt O43175, D175A); experiment: Inhibition of PHGDH D175A mutant (unknown origin) preincubated for 30 mins followed by substrate addition and measured after 5 mins
D-3-phosphoglycerate dehydrogenase (Homo sapiens, UniProt O43175, D175A), sequence (O43175 2-533 D175A limits assumed): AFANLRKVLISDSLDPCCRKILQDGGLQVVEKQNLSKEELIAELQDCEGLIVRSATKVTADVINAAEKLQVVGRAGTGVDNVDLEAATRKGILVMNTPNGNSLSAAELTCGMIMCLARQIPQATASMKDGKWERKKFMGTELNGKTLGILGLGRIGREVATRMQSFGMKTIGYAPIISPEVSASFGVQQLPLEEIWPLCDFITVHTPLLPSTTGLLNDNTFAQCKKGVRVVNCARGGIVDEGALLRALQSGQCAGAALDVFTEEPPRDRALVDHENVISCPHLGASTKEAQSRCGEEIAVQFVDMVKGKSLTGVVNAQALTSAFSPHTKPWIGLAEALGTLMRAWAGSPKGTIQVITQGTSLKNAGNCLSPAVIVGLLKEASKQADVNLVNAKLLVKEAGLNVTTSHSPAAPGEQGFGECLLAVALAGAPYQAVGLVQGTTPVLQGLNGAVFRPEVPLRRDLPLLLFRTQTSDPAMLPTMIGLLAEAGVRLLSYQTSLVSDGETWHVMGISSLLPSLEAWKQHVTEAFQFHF

[4] = Half life in ICR mouse at 3 mg/kg, po measured for 0.25 to 24 hrs by UPLC-MS/MS analysis; type: ADME, organism-based; conditions: in vivo, time 0.25-24 hrs
[5] = target: T1, D-3-phosphoglycerate dehydrogenase; experiment: Binding affinity to PHGDH (unknown origin) assessed as dissociation constant incubated for 60 mins by microscale thermophoresis analysis
[6] = target: T1, D-3-phosphoglycerate dehydrogenase; experiment: Inhibition of wild type PHGDH (unknown origin) preincubated for 30 mins followed by substrate addition and measured after 5 mins
[7] = Toxicity in BALB/c nude mouse xenografted with human PC-9 cells assessed as abnormalities in kidney at 25 mg/kg, ip administered every day for 31 days by H and E staining based assay; type: organism-based; conditions: in vivo, 744 h, time 31 day
MCF7 = experiment: Antiproliferative activity against human MCF7 cells assessed as reduction in cell viability measured for 72 hrs by CCK-8 assay; type: functional, cell-based; conditions: MCF7, 72 h
[8] = Microsomal stability in rat liver microsomes assessed as half life measured upto 60 mins by HPLC-MS/MS analysis; type: ADME, Microsome
[9] = Half life in ICR mouse at 1 mg/kg, iv measured for 0.05 to 24 hrs by UPLC-MS/MS analysis; type: ADME, organism-based; conditions: in vivo, time 0.05-24 hrs
[10] = Microsomal stability in mouse liver microsomes assessed as half life measured upto 60 mins by HPLC-MS/MS analysis; type: ADME, Microsome
[11] = target: T1, D-3-phosphoglycerate dehydrogenase; experiment: Competitive inhibition of PHGDH (unknown origin) assessed as inhibition constant using NAD+ as substrate preincubated for 30 mins followed by substrate addition and measured after 5 mins by Lineweaver-Burk plot analysis
PC-9 [12] = experiment: Antiproliferative activity against human PC-9 cells expressing PHGDH assessed as reduction in cell viability measured for 72 hrs by CCK-8 assay; type: functional, cell-based; conditions: PC-9, 72 h
[13] = Microsomal stability in human liver microsomes assessed as intrinsic clearance measured upto 60 mins by HPLC-MS/MS analysis; type: ADME, Microsome; conditions: 1 h
[14] = AUClast in ICR mouse at 1 mg/kg, iv measured for 0.05 to 24 hrs by UPLC-MS/MS analysis; type: ADME, organism-based; set-up: time upper 24 hrs, dose 1 mg/kg, time lower 0.05 hrs, route iv; conditions: in vivo
HCT-116 = experiment: Antiproliferative activity against human HCT-116 cells expressing PHGDH assessed as reduction in cell viability measured for 72 hrs by CCK-8 assay; type: functional, cell-based; conditions: HCT-116, 72 h
MDA-MB-231 = experiment: Antiproliferative activity against human MDA-MB-231 cells assessed as reduction in cell viability measured for 72 hrs by CCK-8 assay; type: functional, cell-based; conditions: MDA-MB-231, 72 h
[15] = Toxicity in BALB/c nude mouse xenografted with human PC-9 cells assessed as loss of body weight at 25 mg/kg, ip administered every day for 31 days; type: organism-based; conditions: in vivo, 744 h, time 31 day
[16] = target: T1, D-3-phosphoglycerate dehydrogenase; experiment: Inhibition of PHGDH (unknown origin) preincubated for 30 mins followed by substrate addition and measured after 5 mins
[17] = Tmax in ICR mouse at 3 mg/kg, po measured for 0.25 to 24 hrs by UPLC-MS/MS analysis; type: ADME, organism-based; conditions: in vivo, time 0.25-24 hrs
BT-20 = experiment: Antiproliferative activity against human BT-20 cells expressing PHGDH assessed as reduction in cell viability measured for 72 hrs by CCK-8 assay; type: functional, cell-based; conditions: BT-20, 72 h
PANC-1 = experiment: Antiproliferative activity against human PANC-1 cells assessed as reduction in cell viability measured for 72 hrs by CCK-8 assay; type: functional, cell-based; conditions: PANC-1, 72 h
HCC827 = experiment: Antiproliferative activity against human HCC827 cells expressing PHGDH assessed as reduction in cell viability measured for 72 hrs by CCK-8 assay; type: functional, cell-based; conditions: HCC827, 72 h
[18] = AUClast in ICR mouse at 3 mg/kg, po measured for 0.25 to 24 hrs by UPLC-MS/MS analysis; type: ADME, organism-based; set-up: dose 3 mg/kg, time 0.25-24 hrs, route po; conditions: in vivo
[19] = Observed clearance in ICR mouse at 1 mg/kg, iv measured for 0.05 to 24 hrs by UPLC-MS/MS analysis; type: ADME, organism-based; conditions: in vivo, time 0.05-24 hrs
[20] = Microsomal stability in rat liver microsomes assessed as intrinsic clearance measured upto 60 mins by HPLC-MS/MS analysis; type: ADME, Microsome; conditions: 1 h
MCF-10A = experiment: Antiproliferative activity against human MCF-10A cells assessed as reduction in cell viability measured for 72 hrs by CCK-8 assay; type: functional, cell-based
NCI-H23 = experiment: Antiproliferative activity against human NCI-H23 cells assessed as reduction in cell viability measured for 72 hrs by CCK-8 assay; type: functional, cell-based; conditions: NCI-H23, 72 h
[21] = Microsomal stability in mouse liver microsomes assessed as intrinsic clearance measured upto 60 mins by HPLC-MS/MS analysis; type: ADME, Microsome; conditions: 1 h
[22] = target: T1, D-3-phosphoglycerate dehydrogenase; experiment: Binding affinity to his-tagged PHGDH ([…] residues) (unknown origin) assessed as dissociation constant by SPR analysis
[23] = Oral bioavailability in ICR mouse at 3 mg/kg measured for 0.25 to 24 hrs by UPLC-MS/MS analysis; type: ADME, organism-based; conditions: in vivo, time 0.25-24 hrs
PC-9 [24] = experiment: Antitumor activity against human PC-9 cells xenografted in BALB/c nude mouse assessed as tumor growth inhibition at 25 mg/kg, ip administered every day for 31 days by digital vernier caliper analysis; type: functional; conditions: time 31 day
[25] = Drug exposure in BALB/c nude mouse plasma at 25 mg/kg, ip measured for 0.5 to 4 hrs; type: ADME, organism-based; conditions: in vivo, time 0.5-4 hrs
PC-9 [26] = experiment: Antitumor activity against human PC-9 cells xenografted in BALB/c nude mouse assessed as tumor growth inhibition at 12.5 mg/kg, ip administered every day for 31 days by digital vernier caliper analysis; type: functional; conditions: time 31 day
[27] = Cmax in ICR mouse at 3 mg/kg, po measured for 0.25 to 24 hrs by UPLC-MS/MS analysis; type: ADME, organism-based; set-up: dose 3 mg/kg, time 0.25-24 hrs, route po; conditions: in vivo
[28] = Toxicity in BALB/c nude mouse xenografted with human PC-9 cells assessed as abnormalities in liver at 25 mg/kg, ip administered every day for 31 days by H and E staining based assay; type: organism-based; conditions: in vivo, 744 h, time 31 day
[29] = Toxicity in BALB/c nude mouse xenografted with human PC-9 cells assessed as abnormalities in lung at 25 mg/kg, ip administered every day for 31 days by H and E staining based assay; type: organism-based; conditions: in vivo, 744 h, time 31 day
ZR-75-1 = experiment: Antiproliferative activity against human ZR-75-1 cells assessed as reduction in cell viability measured for 72 hrs by CCK-8 assay; type: functional, cell-based; conditions: ZR-75-1, 72 h
NCI-H1975 = experiment: Antiproliferative activity against human NCI-H1975 cells expressing PHGDH assessed as reduction in cell viability measured for 72 hrs by CCK-8 assay; type: functional, cell-based; conditions: NCI-H1975, 72 h
[30] = Drug exposure in BALB/c nude mouse tumor at 50 mg/kg, ip measured for 0.5 to 4 hrs; type: ADME, organism-based; conditions: in vivo, time 0.5-4 hrs
[31] = substrate: CC(=O)c1cccc(NS(=O)(=O)c2ccc(C(=O)Nc3nc(-c4cccc(F)c4)cs3)cc2)c1; conditions: Homo sapiens; dose 6.3 µM, time 35.0 min
[32] = substrate: CC(=O)c1cccc(NS(=O)(=O)c2ccc(C(=O)Nc3nc(-c4cccc(F)c4)cs3)cc2)c1; conditions: Homo sapiens; dose 6.3 µM, time 35.0 min; remark: listed apart in the source
[33] = substrate: CC(=O)c1cccc(NS(=O)(=O)c2ccc(C(=O)Nc3nc(-c4cccc(F)c4)cs3)cc2)c1; conditions: Homo sapiens; dose 25.0 µM, time 35.0 min
[34] = substrate: CC(=O)c1cccc(NS(=O)(=O)c2ccc(C(=O)Nc3nc(-c4cccc(F)c4)cs3)cc2)c1; conditions: Homo sapiens; dose 12.5 µM, time 35.0 min
[35] = substrate: CC(=O)c1cccc(NS(=O)(=O)c2ccc(C(=O)Nc3nc(-c4cccc(F)c4)cs3)cc2)c1; conditions: Homo sapiens; dose 12.5 µM, time 35.0 min; remark: listed apart in the source
[36] = substrate: CC(=O)c1cccc(NS(=O)(=O)c2ccc(C(=O)Nc3nc(-c4cccc(F)c4)cs3)cc2)c1; conditions: Homo sapiens; dose 25.0 µM, time 35.0 min; remark: listed apart in the source
[37] = substrate: CC(=O)c1cccc(NS(=O)(=O)c2ccc(C(=O)Nc3nc(-c4cccc(F)c4)cs3)cc2)c1; conditions: Homo sapiens; dose 3.1 µM, time 35.0 min

## CC(=O)c1cccc(NS(=O)(=O)c2ccc(C(=O)Nc3nc(-c4cccc(F)c4)cs3)cc2)c1
[1]
  half-life: 1.77 h
[2]
  Ki: 14.9 µM
MDA-MB-468
  IC50: 5.3 µM
[3]
  IC50: > 50 µM
[4]
  half-life: 4.74 h
[5]
  Kd: 2.33 µM
[6]
  IC50: 2.8 µM
[7]
  Activity: Non-Toxic
MCF7
  IC50: 39.2 µM
[8]
  half-life: 0.618 h
[9]
  half-life: 4.94 h
[10]
  half-life: 1.45 h
[11]
  Ki: 15.2 µM
PC-9 [12]
  IC50: 3.5 µM
[13]
  CLH: 19.8 mL/min/g
[14]
  AUClast: 38358 ng·mL·h
HCT-116
  IC50: 9.6 µM
MDA-MB-231
  IC50: 37.1 µM
[15]
  Activity: Non-Toxic
[16]
  IC50: 2.8 µM
[17]
  Tmax: 3.33 h
BT-20
  IC50: 5.3 µM
PANC-1
  IC50: 36.6 µM
HCC827
  IC50: 21.6 µM
[18]
  AUClast: 94386 ng·mL·h
[19]
  clearance: 0.48 mL/min/kg
[20]
  CLH: 56.6 mL/min/g
MCF-10A
  IC50: 52.9 µM
NCI-H23
  IC50: 28.6 µM
[21]
  CLH: 24.1 mL/min/g
[22]
  Kd: 2.48 µM
[23]
  bioavailability: 82%
PC-9 [24]
  TGI: 68.9%
[25]
  concentration: 30.8 µM
PC-9 [26]
  TGI: 41.4%
[27]
  Cmax: 8840 ng/mL
[28]
  Activity: Non-Toxic
[29]
  Activity: Non-Toxic
ZR-75-1
  IC50: 38.3 µM
NCI-H1975
  IC50: 6.2 µM
[30]
  Drug uptake: Active

B1: D-3-phosphoglycerate dehydrogenase (Homo sapiens), O43175 (protein)
chain: T1 sequence (O43175 whole entry)
[31]
  Km: 510 µM
[32]
  Km: 51.6 µM
[33]
  Km: 448 µM
[34]
  Km: 64 µM
[35]
  Km: 495 µM
[36]
  Km: 72.9 µM
[37]
  Km: 33.4 µM
